These results are taken from patent publication US11629171B2, “Beta-hairpin peptidomimetics” (POLYPHOR AG, priority 2017, dated 2023).

Structures are written as SMILES. In brackets after ≈: the same amount, converted by molar mass. Where a SMILES comes first, the peptide text is derived from it. Bridges are numbered along the chain shown (N, C = ends). Roman numbers before positions name the chains, in order. [ ]: non-standard residue; d: D form. aThr = C[C@H](O)[C@H](N)C(=O)O; d(hSer) = N[C@H](CCO)C(=O)O; dDab = NCC[C@@H](N)C(=O)O; Dab = NCC[C@H](N)C(=O)O; Abu = CC[C@H](N)C(=O)O; Dap = NC[C@H](N)C(=O)O

Series [1] concerns Klebsiella pneumoniae SSI #3010. The format is cell-based. The following applies: SSI #3010. In short, it runs like this:
(§1)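 CLSI broth microdilution: inoculum ~10^6 CFU/mL in cation-adjusted Mueller-Hinton II broth, with peptide in serial two-fold dilutions plus Polysorbate 80 (0.002% final). MIC (μg/mL) is the lowest concentration without visible growth after 18-20 hours at 35° C.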

Series [2] relates to Enterobacter cloacae 848840. The format is cell-based. The following applies: 848840. The method in brief:
as §1

For series [3], the system named is Acinetobacter baumannii DSM 30008. The format is cell-based. The following applies: DSM 30008. The method in brief:
as §1

For series [4], the system named is Pseudomonas aeruginosa ATCC 27853. The format is cell-based. To be noted: ATCC 27853. In short, it runs like this:
as §1

The test system of series [5] is Escherichia coli ATCC 25922. The format is cell-based. The following applies: ATCC 25922. In short, it runs like this: as §1
In series [6] the test system is Acinetobacter baumannii 872842. The format is cell-based. The following applies: 872842. The method in brief: as §1
Series [7] relates to Klebsiella pneumoniae 968733. The format is cell-based. The following applies: 968733. In short, it runs like this: as §1
In series [8] the test system is Escherichia coli 926415. The format is cell-based. The following applies: 926415. In short, it runs like this:
as §1

In series [9] the test system is human red blood cells (hRBC). Nature of the series: Hemolysis. The following applies: red cells of human, 1 h, 200. The format is cell-based. In short, it runs like this: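 Percent lysis of human red cells was derived from OD540 of the supernatant, referenced to 2% Triton X-100, after a 1 h, 37° C incubation of 20% (v/v) cells with 200 μg/mL peptide.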
Series [10] relates to male ICR mice. The experiment in a line: Tolerability in a mouse model (Maximum Tolerated Dose assay). The format is in vivo. The following applies: 2 × 40 mg/kg s.c. at a 12-hr interval, groups of 3. In short, it runs like this: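 Peptides in 0.9% NaCl (pH 6.5-7.6) given s.c. at 30 or 40 mg/kg, twice 12 h apart, to groups of 3 male ICR mice (23±3 g). Acute toxic signs (mortality, convulsions, tremors, sedation) and autonomic effects (diarrhea, salivation, piloerection) observed for 30 min after each dose.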

Turning to `CC(=O)N[C@H](C(=O)N[C@H]1CSSC[C@@H](C(=O)N[C@@H](CO)C(N)=O)NC(=O)[C@H](C(C)C)NC(=O)[C@H](CO)NC(=O)[C@H](Cc2c[nH]c3ccccc23)NC(=O)[C@H](CCN)NC(=O)[C@@H](CO)NC(=O)[C@H](CCC(=O)N[C@@H](CCN)C(=O)N[C@H](C(=O)N[C@@H](CN)C(=O)N[C@H]2CCNC(=O)[C@H]([C@@H](C)O)NC(=O)[C@H](CCN)NC(=O)[C@H](CCN)NC(=O)[C@H](CC(C)C)NC(=O)[C@@H](CC(C)C)NC(=O)[C@H](CCN)NC2=O)[C@@H](C)O)NC(=O)[C@H](CCN)NC(=O)[C@H](Cc2ccc(O)cc2)NC1=O)C(C)C` [Ex. 297] (I: Ac-VCY[Dab]E[dS][Dab]WSVCS-NH2 / II: [Dab]T[Dap][Dab][Dab][dL]L[Dab][Dab]T; disulfide I:2-I:11; amide I:5-II:N; lactam II:4-II:C), the MIC in [1] amounted to 0.0625 µg/mL (≈ 0.0261 µM); in [2], 0.125 µg/mL (≈ 0.0521 µM); in series [3] it was 0.03125 µg/mL (≈ 0.013 µM); in [4], 0.125 µg/mL (≈ 0.0521 µM); in [5] it was 0.03125 µg/mL (≈ 0.013 µM); in [6], 0.0625 µg/mL (≈ 0.0261 µM). The MIC in series [7] and in series [8] was 0.125 µg/mL (≈ 0.0521 µM) in each case. The “Hemolysis at 200 μg/mL” value in series [9] is on record as under 1%. In [10], the Mortality and dose is given as 0/3 died at 2 × 40 mg/kg.

On to `CC[C@@H]1NC(=O)[C@@H](CC(C)C)NC(=O)[C@H](CCN)NC(=O)[C@@H](NC(=O)[C@H](CN)NC(=O)[C@@H](NC(=O)[C@H](CCN)NC(=O)CC[C@@H]2NC(=O)CNC(=O)[C@H](Cc3ccc(O)cc3)NC(=O)[C@@H](NC(=O)[C@@H](NC(C)=O)C(C)C)CSSC[C@@H](C(=O)N[C@@H](CO)C(N)=O)NC(=O)[C@H](C(C)C)NC(=O)[C@H](CCN)NC(=O)[C@H](Cc3c[nH]c4ccccc34)NC(=O)[C@H](CCN)NC(=O)[C@@H](CCO)NC2=O)[C@@H](C)O)CCNC(=O)[C@H]([C@@H](C)O)NC(=O)[C@H](CCN)NC(=O)[C@H](CCN)NC1=O` [Ex. 298] (I: Ac-VCYGE[d(hSer)][Dab]W[Dab]VCS-NH2 / II: [Dab]T[Dap][Dab][Dab][dL][Abu][Dab][Dab]T; disulfide I:2-I:11; amide I:5-II:N; lactam II:4-II:C), for which the MIC in series [1] was 0.0625 µg/mL (≈ 0.0265 µM); in series [2], 0.25 µg/mL (≈ 0.106 µM); in series [3], 0.0625 µg/mL (≈ 0.0265 µM); in series [4], 0.25 µg/mL (≈ 0.106 µM); in [5], 0.03125 µg/mL (≈ 0.0133 µM); in [6] it was 0.25 µg/mL (≈ 0.106 µM). Moreover, the results for the MIC in [7] and in [8] were 1 µg/mL (≈ 0.425 µM) and 0.5 µg/mL (≈ 0.212 µM), respectively. Further, the “Hemolysis at 200 μg/mL” value in series [9] is given as under 1%. For the same molecule, in series [10], the Mortality and dose was 0/3 died at 2 × 40 mg/kg.

Consider `CC[C@@H]1NC(=O)[C@@H](CC(C)C)NC(=O)[C@H](CCN)NC(=O)[C@@H](NC(=O)[C@H](CN)NC(=O)[C@@H](NC(=O)[C@H](CCN)NC(=O)CC[C@@H]2NC(=O)[C@H](CCN)NC(=O)[C@H](Cc3ccc(O)cc3)NC(=O)[C@@H](NC(=O)[C@@H](NC(C)=O)C(C)C)CSSC[C@@H](C(=O)N[C@@H](CO)C(N)=O)NC(=O)[C@H]([C@@H](C)CC)NC(=O)[C@H](CO)NC(=O)[C@H](Cc3c[nH]c4ccccc34)NC(=O)[C@H](CCN)NC(=O)CNC2=O)[C@@H](C)O)CCNC(=O)[C@H]([C@@H](C)O)NC(=O)[C@H](CCN)NC(=O)[C@H](CCN)NC1=O` [Ex. 299] (I: Ac-VCY[Dab]EG[Dab]WSICS-NH2 / II: [Dab]T[Dap][Dab][Dab][dL][Abu][Dab][Dab]T; disulfide I:2-I:11; amide I:5-II:N; lactam II:4-II:C), for which, in series [1], the “Klebsiella pneumoniae SSI #3010 MIC” value is 0.0625 µg/mL. Further, the MIC in [2] is 0.125 µg/mL (≈ 0.0531 µM); in series [6] it was 0.125 µg/mL (≈ 0.0531 µM); in series [7], 0.5 µg/mL (≈ 0.212 µM); in [8], 0.25 µg/mL (≈ 0.106 µM). Also, the “Acinetobacter baumannii DSM 30008 MIC” value in [3] turned out to be 0.0625 µg/mL. In addition, the “Pseudomonas aeruginosa ATCC 27853 MIC” value in series [4] is 0.25 µg/mL. Further, in series [5], the “Escherichia coli ATCC 25922 MIC” value was determined as 0.0625 µg/mL. The “Hemolysis at 200 μg/mL” value in series [9] was under 1%. The Mortality and dose in series [10] was 0/3 died at 2 × 40 mg/kg.

In the case of `CC[C@@H]1NC(=O)[C@@H](CC(C)C)NC(=O)[C@H](CCN)NC(=O)[C@@H](NC(=O)[C@H](CN)NC(=O)[C@@H](NC(=O)[C@H](CCN)NC(=O)CC[C@@H]2NC(=O)[C@H](CCN)NC(=O)[C@H](Cc3ccc(O)cc3)NC(=O)[C@@H](NC(=O)[C@@H](NC(C)=O)C(C)C)CSSC[C@@H](C(=O)N[C@@H](CO)C(N)=O)NC(=O)[C@H](C(C)C)NC(=O)[C@H](CCN)NC(=O)[C@H](Cc3c[nH]c4ccccc34)NC(=O)[C@H](CO)NC(=O)[C@@H](CCN)NC2=O)[C@@H](C)O)CCNC(=O)[C@H]([C@@H](C)O)NC(=O)[C@H](CCN)NC(=O)[C@H](CCN)NC1=O` [Ex. 300] (I: Ac-VCY[Dab]E[dDab]SW[Dab]VCS-NH2 / II: [Dab]T[Dap][Dab][Dab][dL][Abu][Dab][Dab]T; disulfide I:2-I:11; amide I:5-II:N; lactam II:4-II:C), in series [1], the “Klebsiella pneumoniae SSI #3010 MIC” value came out at 0.0625 µg/mL. For the same molecule, the MIC in series [2] was 0.125 µg/mL (≈ 0.0524 µM); in [6], 1 µg/mL (≈ 0.419 µM); in [7], 2 µg/mL (≈ 0.839 µM); in series [8] it was 0.25 µg/mL (≈ 0.105 µM). The “Acinetobacter baumannii DSM 30008 MIC” value in series [3] came out at 0.125 µg/mL. Moreover, in [4], the “Pseudomonas aeruginosa ATCC 27853 MIC” value came to 0.125 µg/mL. Moreover, the “Escherichia coli ATCC 25922 MIC” value in series [5] was found to be 0.125 µg/mL. Besides, the “Hemolysis at 200 μg/mL” value in series [9] is given as under 1%. Moreover, in series [10], the Mortality and dose is 0/3 died at 2 × 40 mg/kg.

As to `CC(=O)N[C@H](C(=O)N[C@H]1CSSC[C@@H](C(=O)N[C@@H](CO)C(N)=O)NC(=O)[C@H](C(C)C)NC(=O)[C@H]([C@H](C)O)NC(=O)[C@H](Cc2c[nH]c3ccccc23)NC(=O)[C@H](CO)NC(=O)[C@@H](CCN)NC(=O)[C@H](CCC(=O)N[C@@H](CCN)C(=O)N[C@H](C(=O)N[C@@H](CN)C(=O)N[C@H]2CCNC(=O)[C@H]([C@@H](C)O)NC(=O)[C@H](CCN)NC(=O)[C@H](CCN)NC(=O)[C@H](CC(C)C)NC(=O)[C@@H](CC(C)C)NC(=O)[C@H](CCN)NC2=O)[C@@H](C)O)NC(=O)[C@H](CCN)NC(=O)[C@H](Cc2ccc(O)cc2)NC1=O)C(C)C` [Ex. 306] (I: Ac-VCY[Dab]E[dDab]SW[aThr]VCS-NH2 / II: [Dab]T[Dap][Dab][Dab][dL]L[Dab][Dab]T; disulfide I:2-I:11; amide I:5-II:N; lactam II:4-II:C), in series [1], the “Klebsiella pneumoniae SSI #3010 MIC” value was 0.0625 µg/mL. In addition, the MIC in series [2] amounted to 0.0625 µg/mL (≈ 0.0259 µM); in series [6] it was 0.0625 µg/mL (≈ 0.0259 µM); in [7], 0.125 µg/mL (≈ 0.0518 µM); in series [8] it was 0.0625 µg/mL (≈ 0.0259 µM). For the same molecule, the “Acinetobacter baumannii DSM 30008 MIC” value in series [3] worked out at 0.0625 µg/mL. The “Pseudomonas aeruginosa ATCC 27853 MIC” value in [4] was 0.0625 µg/mL. Further, in [5], the “Escherichia coli ATCC 25922 MIC” value was 0.03125 µg/mL. Moreover, the “Hemolysis at 200 μg/mL” value in [9] is under 1%. The Mortality and dose in [10] is recorded as 0/3 died at 2 × 40 mg/kg.

As for `CC(=O)N[C@H](C(=O)N[C@H]1CSSC[C@@H](C(=O)N[C@@H](CO)C(N)=O)NC(=O)[C@H](C(C)C)NC(=O)[C@H](CO)NC(=O)[C@H](Cc2c[nH]c3ccccc23)NC(=O)[C@H](CO)NC(=O)[C@@H](CCN)NC(=O)[C@H](CCC(=O)N[C@H](CCN)C(=O)N[C@H](C(=O)N[C@@H](CN)C(=O)N[C@H]2CCNC(=O)[C@H]([C@@H](C)O)NC(=O)[C@H](CCN)NC(=O)[C@H](CCN)NC(=O)[C@H](CC(C)C)NC(=O)[C@@H](CC(C)C)NC(=O)[C@H](CCN)NC2=O)[C@@H](C)O)NC(=O)[C@H](CCN)NC(=O)[C@H](Cc2ccc(O)cc2)NC1=O)C(C)C` [Ex. 310] (I: Ac-VCY[Dab]E[dDab]SWSVCS-NH2 / II: [dDab]T[Dap][Dab][Dab][dL]L[Dab][Dab]T; disulfide I:2-I:11; amide I:5-II:N; lactam II:4-II:C), the “Klebsiella pneumoniae SSI #3010 MIC” value in series [1] is 0.0625 µg/mL. Moreover, the MIC in [2], in [6], in [7] and in series [8] was 0.0625 µg/mL (≈ 0.0261 µM) throughout. Also, the “Acinetobacter baumannii DSM 30008 MIC” value in [3] is 0.0625 µg/mL. In addition, the “Pseudomonas aeruginosa ATCC 27853 MIC” value in [4] stood at 0.125 µg/mL. Also, the “Escherichia coli ATCC 25922 MIC” value in series [5] is 0.03125 µg/mL. Moreover, in series [9], the “Hemolysis at 200 μg/mL” value is under 1%. Also, the Mortality and dose in [10] is listed as 0/3 died at 2 × 40 mg/kg.

The term MIC denotes the lowest concentration that inhibits growth of the organism. High values mean weaker potency, low ones greater potency.
